Article PMC11649115, “In vitro safety evaluation of dopamine D3R antagonist, R-VK4-116, as a potential medication for the treatment of opioid use disorder” (PLOS ONE, 2024)
Where two headings read alike, the source gives them in different places.

Assays:
[1] = tested on: CYP1A2, CYP2B6, CYP2C8, CYP2C9, CYP2C19; experiment: CYP phenotyping, other recombinant CYP isoforms; assay type: in vitro ADME; conditions: 1 μM, up to 120 min
Method: (§1) CYP phenotyping involved the identification of CYP isoforms, which involved in the metabolism of R-VK4-116 using recombinant CYP1A2, CYP2B6, CYP2C8, CYP2C9, CYP2C19, CYP2D6, and CYP3A4 (XenoTech, LLC, Kansas City, KS), followed by determination of the Km and Vmax for the metabolites formed by the major CYP isoforms. […] In addition, R-VK4-116 was also incubated with all components in the absence of NADPH. […] Following brief vortexing and centrifugation, 50 μl of supernatant was mixed with 450 μl of 25:75:0.2 acetonitrile/water/formic acid for analysis by LC-MS/MS to determine the remaining R-VK4-116 at each time point based on peak area ratio (PAR) of R-VK4-116 to IS. As a positive control, the known substrate of each individual CYP isoform (phenacetin for CYP1A2, bupropion for CYP2B6, paclitaxel for CYP2C8, diclofenac for CYP2C9, diazepam for CYP2C19, bufuralol for CYP2D6, and testosterone for CYP3A4) was also incubated.

CYP3A4 = CYP3A4 (Homo sapiens, UniProt P08684); experiment: CYP phenotyping, recombinant CYP; assay type: in vitro ADME; parameters: purchased XenoTech, LLC, Kansas City, KS; host or cells: bactosomes (bacterial membranes); conditions: recombinant CYP3A4, pH 7.4, incubated with CYP3A4, 1 μM, 120 min
Chain of CYP3A4 (P08684 whole entry): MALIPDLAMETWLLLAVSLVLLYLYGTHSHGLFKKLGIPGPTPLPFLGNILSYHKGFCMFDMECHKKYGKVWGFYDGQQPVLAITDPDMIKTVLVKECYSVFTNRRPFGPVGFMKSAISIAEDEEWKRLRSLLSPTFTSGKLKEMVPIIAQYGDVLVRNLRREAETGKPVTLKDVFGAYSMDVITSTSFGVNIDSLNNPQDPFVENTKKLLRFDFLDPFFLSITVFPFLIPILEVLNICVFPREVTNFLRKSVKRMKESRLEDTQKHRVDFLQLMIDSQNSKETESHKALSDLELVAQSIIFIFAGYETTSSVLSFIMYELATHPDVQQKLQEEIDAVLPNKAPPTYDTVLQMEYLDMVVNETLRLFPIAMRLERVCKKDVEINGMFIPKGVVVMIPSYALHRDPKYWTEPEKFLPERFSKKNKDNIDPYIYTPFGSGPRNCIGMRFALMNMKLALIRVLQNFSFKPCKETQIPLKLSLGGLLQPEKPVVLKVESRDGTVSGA
Method: as §1

CYP2D6 = CYP2D6 (Homo sapiens, UniProt P10635); experiment: CYP phenotyping, recombinant CYP; assay type: in vitro ADME; parameters: purchased XenoTech, LLC, Kansas City, KS; host or cells: bactosomes (bacterial membranes); conditions: recombinant CYP2D6, pH 7.4, incubated with CYP2D6, 1 μM, 120 min
Chain of CYP2D6 (P10635 whole entry): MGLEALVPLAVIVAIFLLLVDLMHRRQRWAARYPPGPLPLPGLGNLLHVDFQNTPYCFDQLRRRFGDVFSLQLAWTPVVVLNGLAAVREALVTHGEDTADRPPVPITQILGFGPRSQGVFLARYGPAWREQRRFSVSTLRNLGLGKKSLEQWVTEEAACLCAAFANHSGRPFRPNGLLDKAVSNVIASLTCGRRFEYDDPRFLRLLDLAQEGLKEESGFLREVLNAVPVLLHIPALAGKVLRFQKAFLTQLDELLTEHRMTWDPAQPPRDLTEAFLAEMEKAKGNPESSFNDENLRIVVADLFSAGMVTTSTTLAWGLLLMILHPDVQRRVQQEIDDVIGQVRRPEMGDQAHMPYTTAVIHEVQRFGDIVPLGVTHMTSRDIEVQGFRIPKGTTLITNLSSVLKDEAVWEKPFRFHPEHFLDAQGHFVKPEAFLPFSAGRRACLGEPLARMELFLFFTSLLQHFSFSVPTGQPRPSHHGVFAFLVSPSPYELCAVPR
Method: as §1

CYP1A2 = experiment: CYP induction, in situ catalytic activity, human hepatocytes; assay type: in vitro ADME
From the text: Rifampicin as a positive control and solvent (0.1% DMSO) vehicle control were also included. The acceptance criteria for CYP induction was ≥ 2-fold induction for significant CYP activity, while the acceptance criteria for CYP mRNA was ≥ 4-fold for significant CYP induction.

MARK3 = target: T1, MARK3 (Homo sapiens, UniProt P27448); experiment: KINOMEscan binding (% Ctrl, Kd)
T1 construct: made in house; host or cells: E. coli BL21-derived host (T7 phage) or HEK-293
T1 sequence (P27448 whole entry): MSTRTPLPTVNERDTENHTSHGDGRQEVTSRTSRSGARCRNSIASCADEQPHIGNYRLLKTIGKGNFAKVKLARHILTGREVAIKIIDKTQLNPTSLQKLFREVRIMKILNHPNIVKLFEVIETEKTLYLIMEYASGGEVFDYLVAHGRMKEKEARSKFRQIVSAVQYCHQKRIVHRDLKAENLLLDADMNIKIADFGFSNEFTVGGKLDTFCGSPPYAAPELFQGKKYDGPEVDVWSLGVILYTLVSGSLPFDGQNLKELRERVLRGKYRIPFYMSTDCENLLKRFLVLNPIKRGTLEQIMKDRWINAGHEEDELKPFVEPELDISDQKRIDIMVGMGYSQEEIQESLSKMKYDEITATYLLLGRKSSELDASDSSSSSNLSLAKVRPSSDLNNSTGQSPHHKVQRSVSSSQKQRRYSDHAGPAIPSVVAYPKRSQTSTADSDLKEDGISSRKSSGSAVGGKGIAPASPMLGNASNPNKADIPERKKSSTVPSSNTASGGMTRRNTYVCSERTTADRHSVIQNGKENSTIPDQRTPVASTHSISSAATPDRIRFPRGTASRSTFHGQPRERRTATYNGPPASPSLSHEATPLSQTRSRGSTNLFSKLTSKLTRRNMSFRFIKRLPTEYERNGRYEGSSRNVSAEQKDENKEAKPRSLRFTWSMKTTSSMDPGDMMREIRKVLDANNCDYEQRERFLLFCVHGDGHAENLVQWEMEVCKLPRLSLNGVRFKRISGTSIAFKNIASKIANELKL
Method: (§2) Briefly, E. coli host derived from the BL21 strain were grown to log-phase and infected with kinase-tagged T7 phage and incubated with shaking at 32°C until lysis. The lysates were centrifuged and filtered to remove cell debris. The remaining kinases were produced in HEK-293 cells and subsequently tagged with DNA for qPCR detection. Streptavidin-coated magnetic beads were treated with biotinylated small molecule ligands to generate affinity resins for kinase assays. The liganded beads were blocked with excess biotin and washed to remove unbound ligand and to reduce non-specific phage binding. […] Selectivity Score (S-score) was a quantitative measure of compound selectivity. […] The binding constants (Kds) were also determined with a standard dose-response curve using the Hill equation and Levenberg-Marquardt algorithm [24, 25].

[2] = Metabolic stability in hepatocyte; conditions: human, hepatocytes in suspension
Method: CYP3A4 substrate Midazolam (10 μM) was prepared and incubated in the same manner. […] In addition, in vitro half-life (t1/2, min) and intrinsic clearance (CLint, μl/min/10^6 cells) were calculated [10, 11].

CHEK2 = target: T2, CHEK2 (Homo sapiens, UniProt O96017); experiment: KINOMEscan binding (% Ctrl, Kd)
T2 construct: made in house; host or cells: E. coli BL21-derived host (T7 phage) or HEK-293
T2 sequence (O96017 whole entry): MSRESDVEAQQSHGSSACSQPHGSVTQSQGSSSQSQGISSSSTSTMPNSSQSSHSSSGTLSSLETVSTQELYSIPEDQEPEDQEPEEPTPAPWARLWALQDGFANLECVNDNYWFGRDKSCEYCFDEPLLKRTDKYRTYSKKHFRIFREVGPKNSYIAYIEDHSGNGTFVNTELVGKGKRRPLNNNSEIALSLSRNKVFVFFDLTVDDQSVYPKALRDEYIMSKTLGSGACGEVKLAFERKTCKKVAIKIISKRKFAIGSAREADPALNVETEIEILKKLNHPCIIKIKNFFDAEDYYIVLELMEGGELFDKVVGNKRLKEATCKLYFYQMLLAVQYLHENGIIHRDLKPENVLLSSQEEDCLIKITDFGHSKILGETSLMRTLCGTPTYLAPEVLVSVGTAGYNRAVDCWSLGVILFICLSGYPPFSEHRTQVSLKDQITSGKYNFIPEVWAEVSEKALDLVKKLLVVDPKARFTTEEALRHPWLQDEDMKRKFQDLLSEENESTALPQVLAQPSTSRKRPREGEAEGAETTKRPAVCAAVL
Method: as §2

D3R = tested on: D3R; parameters: method as in PMID 31526003; conditions: read-out: antagonist effect on D3R (IC50); cited from earlier work
hGABAA∞1β2γ2 = target: T3, hGABAA∞1β2γ2 (Homo sapiens, UniProt P14867+P18507+P47870); experiment: IonFlux HT electrophysiological assay; assay type: cell-based; conditions: 10 μM
T3 construct: Eurofins Cerep (France) and Eurofins Discovery (St. Charles, MO)
T3 sequence (P14867 28-456): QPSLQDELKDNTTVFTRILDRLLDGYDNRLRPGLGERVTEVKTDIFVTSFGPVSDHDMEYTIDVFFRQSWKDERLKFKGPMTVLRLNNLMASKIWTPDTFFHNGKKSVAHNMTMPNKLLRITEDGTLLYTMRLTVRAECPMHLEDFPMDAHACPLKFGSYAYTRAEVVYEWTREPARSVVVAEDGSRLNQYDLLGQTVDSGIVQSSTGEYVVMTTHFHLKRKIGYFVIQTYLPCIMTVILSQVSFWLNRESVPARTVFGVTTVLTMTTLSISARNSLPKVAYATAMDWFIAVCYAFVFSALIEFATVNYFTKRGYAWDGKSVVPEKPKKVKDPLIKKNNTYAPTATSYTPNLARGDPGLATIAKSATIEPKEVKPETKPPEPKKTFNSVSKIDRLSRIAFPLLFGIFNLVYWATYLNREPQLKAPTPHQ
T3 sequence (P47870 25-512 limits assumed): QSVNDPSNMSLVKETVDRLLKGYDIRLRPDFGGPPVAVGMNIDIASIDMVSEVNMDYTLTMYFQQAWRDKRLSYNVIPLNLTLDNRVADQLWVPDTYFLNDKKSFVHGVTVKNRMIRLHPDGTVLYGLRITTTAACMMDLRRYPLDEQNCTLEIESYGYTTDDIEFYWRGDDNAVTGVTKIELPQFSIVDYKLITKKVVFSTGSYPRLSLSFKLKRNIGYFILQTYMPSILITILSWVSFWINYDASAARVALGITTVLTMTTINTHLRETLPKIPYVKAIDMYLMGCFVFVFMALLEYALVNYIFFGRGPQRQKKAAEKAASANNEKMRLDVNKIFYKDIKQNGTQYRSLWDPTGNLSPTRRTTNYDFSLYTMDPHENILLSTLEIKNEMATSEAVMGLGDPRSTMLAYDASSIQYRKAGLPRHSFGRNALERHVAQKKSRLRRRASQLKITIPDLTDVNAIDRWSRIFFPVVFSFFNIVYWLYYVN
T3 sequence (P18507 40-475): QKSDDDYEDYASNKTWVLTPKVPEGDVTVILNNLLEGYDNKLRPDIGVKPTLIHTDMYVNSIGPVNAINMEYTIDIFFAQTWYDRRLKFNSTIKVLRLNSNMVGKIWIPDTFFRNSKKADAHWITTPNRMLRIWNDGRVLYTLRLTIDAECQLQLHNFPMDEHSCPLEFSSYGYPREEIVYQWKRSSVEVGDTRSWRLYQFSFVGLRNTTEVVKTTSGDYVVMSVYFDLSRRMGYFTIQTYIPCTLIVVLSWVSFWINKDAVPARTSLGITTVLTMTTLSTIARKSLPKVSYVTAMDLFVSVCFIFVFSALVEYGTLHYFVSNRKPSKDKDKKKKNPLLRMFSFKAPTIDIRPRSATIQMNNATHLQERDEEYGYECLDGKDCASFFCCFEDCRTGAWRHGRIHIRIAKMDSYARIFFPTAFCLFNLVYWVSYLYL
Method: Electrophysiological assays were also conducted to profile R-VK4-116 for activities on ion channel targets. The QPatch HT (patch clamp) measured the agonist or antagonist activity of R-VK4-116 on ion channels. For these assays, the voltage was used as the ligand to activate the channel and induce a measurable current. The IonFlux HT measured the agonist, antagonist, or PAM activity of R-VK4-116 on ligand-gated ion channels. For these assays, GABA or Acetylcholine (ACh) was used as the ligand to activate the channel and induce measurable current. The six ion channels tested at 10 μM of R-VK4-116 in replicate were hNav1.5 Peak, hERG, hKCNQ1/minK, hCav1.2, hGABAA∞1/β2g2 and hnAChR∞4/β2.

OCT2 = target: T4, OCT2 (Homo sapiens, UniProt O15244); experiment: Transporter mediated assay (substrate/inhibitor), MDCK-II cells; assay type: in vitro ADME
T4 construct: expressed in transfected cells; host or cells: MDCK-II cells
T4 sequence (O15244 1-555): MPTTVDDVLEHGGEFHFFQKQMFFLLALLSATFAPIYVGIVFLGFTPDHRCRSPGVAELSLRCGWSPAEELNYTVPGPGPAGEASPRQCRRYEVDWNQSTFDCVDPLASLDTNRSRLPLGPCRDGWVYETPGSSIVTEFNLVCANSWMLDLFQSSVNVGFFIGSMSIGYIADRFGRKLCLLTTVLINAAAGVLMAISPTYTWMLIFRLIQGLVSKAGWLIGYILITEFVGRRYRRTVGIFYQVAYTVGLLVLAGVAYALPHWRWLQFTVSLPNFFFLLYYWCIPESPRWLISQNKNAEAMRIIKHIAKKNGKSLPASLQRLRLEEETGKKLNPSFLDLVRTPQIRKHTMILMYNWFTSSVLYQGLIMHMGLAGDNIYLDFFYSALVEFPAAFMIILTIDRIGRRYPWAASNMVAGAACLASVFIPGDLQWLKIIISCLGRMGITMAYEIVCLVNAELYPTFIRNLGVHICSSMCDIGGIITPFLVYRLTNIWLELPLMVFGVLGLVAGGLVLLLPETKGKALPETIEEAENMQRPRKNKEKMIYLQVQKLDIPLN
Method: The MDCK-II cells were treated to express the transporter of interest. The transport of each probe substrate was determined by radiometric detection (Fig 1 in S1 File). […] For the uptake assay, the net transporter-mediated uptake-rate (V) of the substrate by each SLC transporter was calculated as follows: Transporter–mediatedupdaterate(pmol/min/cm^2)=(Cellularaccumulationincellsexpressingthetransporter)−(Meancellularaccumulationincontrolcells)/Surfacearea×incubationtime
Fold of activity and percent inhibition were determined as follows: Foldofactivity=(Meanuptakerate)transporterexpressingcells/(Meanuptakerate)controlcells Percentinhibition=100−100×(Transport‐mediatedupdaterate)withinhibitor/(Transport‐mediatedupdaterate)vehiclecontrol

[3] = 11-point curve 0.001 to 10 μM, read-out: binding constant (Kd)
[4] = Sprague Dawley (rat), Beagle (dog), rat, dog

For CCc1cc(Cl)c(OC)c(N2CCN(CC(O)CCNC(=O)c3cc4ccccc4[nH]3)CC2)c1 (stereo not drawn) [R-VK4-116, N-(4-(4-(3-chloro-5-ethyl-2-methoxyphenyl)piperazin-1-yl)-3-hydroxybutyl)-1H-indole-2-carboxamide], the “metabolism by other CYP isoforms” value [1] was “Minimal to no metabolism”, the remaining at 2 h, 1 μM (CYP3A4) was 25.6% and the remaining at 2 h, 1 μM (CYP2D6) was 40.6%. For the same compound, the “CYP1A2 activity, Fold of Vehicle Control” value (CYP1A2; Lot 336, 0.01 µM) was 0.96 fold, the Phenacetin-O- deethylation (CYP1A2; Lot 336, 0.01 µM) was 1.1 pmol/min/106 cells and the “CYP1A2 activity, Fold of Vehicle Control” value (CYP1A2; Lot 336, 0.1 µM) was 0.96 fold. The Phenacetin-O- deethylation (CYP1A2; Lot 336, 0.1 µM) was 1.1 pmol/min/106 cells, the “CYP1A2 activity, Fold of Vehicle Control” value (CYP1A2; Lot 336, 1 µM) was 1.2 fold and the Phenacetin-O- deethylation (CYP1A2; Lot 336, 1 µM) was 1.4 pmol/min/106 cells. For the same compound, the “CYP1A2 activity, Fold of Vehicle Control” value (CYP1A2; Lot 336, 3 µM) was 1.5 fold, the Phenacetin-O- deethylation (CYP1A2; Lot 336, 3 µM) was 1.8 pmol/min/106 cells and the “CYP1A2 activity, Fold of Vehicle Control” value (CYP1A2; Lot 336, 5 µM) was 1.6 fold. The Phenacetin-O- deethylation (CYP1A2; Lot 336, 5 µM) was 1.8 pmol/min/106 cells, the “CYP1A2 activity, Fold of Vehicle Control” value (CYP1A2; Lot 336, 10 µM) was 1.5 fold and the “CYP1A2 activity, Fold of Vehicle Control” value (CYP1A2; Lot 348B, 0.01 µM) was 0.92 fold. For the same compound, the “CYP1A2 activity, Fold of Vehicle Control” value (CYP1A2; Lot 348B, 0.1 µM) was 0.91 fold, the “CYP1A2 activity, Fold of Vehicle Control” value (CYP1A2; Lot 348B, 1 µM) was 0.99 fold and the “CYP1A2 activity, Fold of Vehicle Control” value (CYP1A2; Lot 348B, 3 µM) was 1.1 fold. The “CYP1A2 activity, Fold of Vehicle Control” value (CYP1A2; Lot 348B, 5 µM) was 1.1 fold, the “CYP1A2 activity, Fold of Vehicle Control” value (CYP1A2; Lot 348B, 10 µM) was 1.1 fold and the “CYP1A2 activity, Fold of Vehicle Control” value (CYP1A2; Lot 399, 0.01 µM) was 1.1 fold. For the same compound, the Phenacetin-O- deethylation (CYP1A2; Lot 399, 0.01 µM) was 8.8 pmol/min/106 cells, the “CYP1A2 activity, Fold of Vehicle Control” value (CYP1A2; Lot 399, 0.1 µM) was 1.1 fold and the Phenacetin-O- deethylation (CYP1A2; Lot 399, 0.1 µM) was 9.4 pmol/min/106 cells. The “CYP1A2 activity, Fold of Vehicle Control” value (CYP1A2; Lot 399, 1 µM) was 1.1 fold, the Phenacetin-O- deethylation (CYP1A2; Lot 399, 1 µM) was 9.3 pmol/min/106 cells and the “CYP1A2 activity, Fold of Vehicle Control” value (CYP1A2; Lot 399, 3 µM) was 1.2 fold. For the same compound, the Phenacetin-O- deethylation (CYP1A2; Lot 399, 3 µM) was 9.8 pmol/min/106 cells, the “CYP1A2 activity, Fold of Vehicle Control” value (CYP1A2; Lot 399, 5 µM) was 1.2 fold and the Phenacetin-O- deethylation (CYP1A2; Lot 399, 5 µM) was 10 pmol/min/106 cells. For the same compound, the “CYP1A2 activity, Fold of Vehicle Control” value (CYP1A2; Lot 399, 10 µM) was 1.1 fold, the Phenacetin-O- deethylation (CYP1A2; Lot 399, 10 µM) was 9.0 pmol/min/106 cells and the Kd (MARK3; [3]) was greater than 10 µM. It also gave a remaining binding at 1 µM (MARK3; read-out: %Control) of less than 35%, a remaining binding at 1 µM (MARK3; read-out: Gene (S-score with % control): MARK3) of 0% and a half-life at 0.5 μM [2, 4] of 1.52 to 1.95 h. For the same compound, the half-life at 10 μM [2, 4] was 2.82 to 5.78 h, the hepatocyte CLint at 0.5 μM [2, 4] was 12 to 16 µL/min/1e6 cells and the hepatocyte CLint at 10 μM [2, 4] was 4 to 8 µL/min/1e6 cells. It also gave a half-life at 0.5 μM [2] of 1.95 h, a half-life at 10 μM [2] of 5.63 h and a hepatocyte CLint at 0.5 μM [2] of 11.8 µL/min/1e6 cells. The hepatocyte CLint at 10 μM [2] was 4.1 µL/min/1e6 cells, the Kd (CHEK2; [3]) was greater than 10 µM and the remaining binding at 1 µM (CHEK2; read-out: %Control) was less than 35%. For the same compound, the remaining binding at 1 µM (CHEK2; read-out: Gene (S-score with % control): CHEK2) was 19%, the IC50 (D3R) was 0.35 µM and the agonist effect (hGABAA∞1β2γ2) was 97.71%. For the same compound, the “fold difference in mean uptake rate (substrate test)” value (OCT2; OCT2, 1 μM, transporter cells vs control cells) was less than 2 fold, the “Inhibition (%)” value (OCT2; OCT2, 0.1% BSA, 10 μM) was “no statistically significant inhibition” and the inhibition at 10 µM (OCT2; human, polarized monolayer of MDCK-II cells expressing OCT2, OCT2, 0.1% BSA, 10 μM) was -17.4 ± 1.88%.
